Results reported in patent US10336732B2, “1-heterocyclyl isochromanyl compounds and analogs for treating CNS disorders” (Sunovion Pharmaceuticals Inc., priority 2015, dated 2019).

test system: mice; assay: Neuropharmacological assay (SmartCube), behavioral signature of compound-treated mice; assay type: in vivo; conditions: i.p. 15 min before behavioral test, most efficacious dose(s) of 3 doses
In short: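 Mice received compound i.p. in NMP/PEG/propylene glycol vehicle at 3 doses, 15 min before testing. Video-captured behavior was algorithmically compared with a reference-drug signature database.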

Structure (SMILES) | AD: ADHD (probability that behavioral signature matches class) | AG: analgesic (probability that behavioral signature matches class) | AX: anxiolytic (probability that behavioral signature matches class) | CE: cognitive enhancer (probability that behavioral signature matches class) | DP: anti-depressant (probability that behavioral signature matches class) | HA: hallucinogen (probability that behavioral signature matches class) | MS: mood stabilizer (probability that behavioral signature matches class) | PS: anti-psychotic (probability that behavioral signature matches class) | SD: sedative hypnotic (probability that behavioral signature matches class) | UN: uncharacterized CNS activity (probability that behavioral signature matches class)
Fc1ccc2c(c1)[C@H]([C@H]1CCN1)OCC2 [Compound I-87, (R)-2-((R)-7-fluoroisochroman-1-yl)azetidine] | + (LOQ ≤ + <5%) | ++ (5% ≤ ++ <25%) | ++ (5% ≤ ++ <25%) | + (LOQ ≤ + <5%) | ++ (5% ≤ ++ <25%) | + (LOQ ≤ + <5%) | + (LOQ ≤ + <5%) | +++ (25% ≤ +++ <50%) | + (LOQ ≤ + <5%) | ++ (5% ≤ ++ <25%)
Fc1ccc2c(c1)CO[C@@H]2[C@H]1CCCN1 [Compound I-120, (R)-2-((S)-5-fluoro-1,3-dihydroisobenzofuran-1-yl)pyrrolidine] | + (LOQ ≤ + <5%) | ++ (5% ≤ ++ <25%) | ++ (5% ≤ ++ <25%) | +++ (25% ≤ +++ <50%) | ++ (5% ≤ ++ <25%) | + (LOQ ≤ + <5%) | ++ (5% ≤ ++ <25%) | ++ (5% ≤ ++ <25%) | ++ (5% ≤ ++ <25%) | ++ (5% ≤ ++ <25%)
Fc1ccc2c(c1)CCO[C@@H]2[C@H]1CCN1 [Compound I-91, (R)-2-((S)-6-fluoroisochroman-1-yl)azetidine] | + (LOQ ≤ + <5%) | ++ (5% ≤ ++ <25%) | ++ (5% ≤ ++ <25%) | ++ (5% ≤ ++ <25%) | ++ (5% ≤ ++ <25%) | + (LOQ ≤ + <5%) | + (LOQ ≤ + <5%) | +++ (25% ≤ +++ <50%) | ++ (5% ≤ ++ <25%) | ++ (5% ≤ ++ <25%)
OC1CO[C@@H]([C@@H]2CCCN2)c2ccc(F)cc21 (stereo partly drawn) [Compound I-134, (1R)-6-fluoro-1-((S)-pyrrolidin-2-yl)isochroman-4-ol] | + (LOQ ≤ + <5%) | + (LOQ ≤ + <5%) | ++ (5% ≤ ++ <25%) | + (LOQ ≤ + <5%) | + (LOQ ≤ + <5%) | + (LOQ ≤ + <5%) | + (LOQ ≤ + <5%) | + (LOQ ≤ + <5%) | + (LOQ ≤ + <5%) | + (LOQ ≤ + <5%)
Cc1ccc2c(c1)[C@H]([C@H]1CCCN1)OCC2 [Compound I-28, (R)-2-((R)-7-methylisochroman-1-yl)pyrrolidine] | + (LOQ ≤ + <5%) | ++ (5% ≤ ++ <25%) | +++ (25% ≤ +++ <50%) | + (LOQ ≤ + <5%) | ++ (5% ≤ ++ <25%) | + (LOQ ≤ + <5%) | + (LOQ ≤ + <5%) | ++ (5% ≤ ++ <25%) | + (LOQ ≤ + <5%) | ++ (5% ≤ ++ <25%)
Cc1ccc2c(c1)[C@@H]([C@@H]1CCCN1)OCC2 [Compound I-26, (S)-2-((S)-7-methylisochroman-1-yl)pyrrolidine] | + (LOQ ≤ + <5%) | + (LOQ ≤ + <5%) | ++ (5% ≤ ++ <25%) | + (LOQ ≤ + <5%) | + (LOQ ≤ + <5%) | + (LOQ ≤ + <5%) | + (LOQ ≤ + <5%) | + (LOQ ≤ + <5%) | + (LOQ ≤ + <5%) | + (LOQ ≤ + <5%)
CCN1CCC[C@H]1[C@@H]1OCCc2cc(F)ccc21 [Compound I-70, (S)-1-ethyl-2-((R)-6-fluoroisochroman-1-yl)pyrrolidine] | + (LOQ ≤ + <5%) | ++ (5% ≤ ++ <25%) | +++ (25% ≤ +++ <50%) | + (LOQ ≤ + <5%) | ++ (5% ≤ ++ <25%) | + (LOQ ≤ + <5%) | + (LOQ ≤ + <5%) | + (LOQ ≤ + <5%) | + (LOQ ≤ + <5%) | + (LOQ ≤ + <5%)
Fc1ccc2c(c1)CCO[C@@H]2[C@H]1CCCN1 [Compound I-11, (R)-2-((S)-6-fluoroisochroman-1-yl)pyrrolidine] | + (LOQ ≤ + <5%) | ++ (5% ≤ ++ <25%) | ++ (5% ≤ ++ <25%) | ++ (5% ≤ ++ <25%) | ++ (5% ≤ ++ <25%) | + (LOQ ≤ + <5%) | + (LOQ ≤ + <5%) | +++ (25% ≤ +++ <50%) | + (LOQ ≤ + <5%) | ++ (5% ≤ ++ <25%)

same assay, conditions: i.p. 15 min before behavioral test, most efficacious dose(s) of 3 doses

Structure (SMILES) | XG: anxiogenic (probability that behavioral signature matches class)
Fc1ccc2c(c1)[C@H]([C@H]1CCN1)OCC2 [Compound I-87, (R)-2-((R)-7-fluoroisochroman-1-yl)azetidine] | + (LOQ ≤ + <5%)
Fc1ccc2c(c1)CO[C@@H]2[C@H]1CCCN1 [Compound I-120, (R)-2-((S)-5-fluoro-1,3-dihydroisobenzofuran-1-yl)pyrrolidine] | + (LOQ ≤ + <5%)
Fc1ccc2c(c1)CCO[C@@H]2[C@H]1CCN1 [Compound I-91, (R)-2-((S)-6-fluoroisochroman-1-yl)azetidine] | + (LOQ ≤ + <5%)
OC1CO[C@@H]([C@@H]2CCCN2)c2ccc(F)cc21 (stereo partly drawn) [Compound I-134, (1R)-6-fluoro-1-((S)-pyrrolidin-2-yl)isochroman-4-ol] | + (LOQ ≤ + <5%)
Cc1ccc2c(c1)[C@H]([C@H]1CCCN1)OCC2 [Compound I-28, (R)-2-((R)-7-methylisochroman-1-yl)pyrrolidine] | + (LOQ ≤ + <5%)
Cc1ccc2c(c1)[C@@H]([C@@H]1CCCN1)OCC2 [Compound I-26, (S)-2-((S)-7-methylisochroman-1-yl)pyrrolidine] | + (LOQ ≤ + <5%)
CCN1CCC[C@H]1[C@@H]1OCCc2cc(F)ccc21 [Compound I-70, (S)-1-ethyl-2-((R)-6-fluoroisochroman-1-yl)pyrrolidine] | + (LOQ ≤ + <5%)
Fc1ccc2c(c1)CCO[C@@H]2[C@H]1CCCN1 [Compound I-11, (R)-2-((S)-6-fluoroisochroman-1-yl)pyrrolidine] | + (LOQ ≤ + <5%)
